Key:
Format in all cases: cell-based
OVCAR-4 = test: NCI DTP cell line screen (SRB), Ovarian Cancer
Method: (§1) Screening of compounds 70 and 71 against several cancer cell lines The human tumor cell lines of the cancer screening panel are grown in RPMI 1640 medium containing 5% fetal bovine serum and 2 mM L-glutamine. For a typical screening experiment, cells are inoculated into 96 well microtiter plates in 100 μL at plating densities ranging from 5,000 to 40,000 cells/well depending on the doubling time of individual cell lines. After cell inoculation, the microtiter plates are incubated at 37° C., 5% CO2, 95% air and 100% relative humidity for 24 h prior to addition of experimental drugs.
(§2) After 24 h, two plates of each cell line are fixed in situ with TCA, to represent a measurement of the cell population for each cell line at the time of drug addition (Tz). Experimental drugs are solubilized in dimethyl sulfoxide at 400-fold the desired final maximum test concentration and stored frozen prior to use. At the time of drug addition, an aliquot of frozen concentrate is thawed and diluted to twice the desired final maximum test concentration with complete medium containing 50 μg/ml gentamicin. Additional four, 10-fold or ½ log serial dilutions are made to provide a total of five drug concentrations plus control. Aliquots of 100 μl of these different drug dilutions are added to the appropriate microtiter wells already containing 100 μl of medium, resulting in the required final drug concentrations.
(§3) Following drug addition, the plates are incubated for an additional 48 h at 37° C., 5% CO2, 95% air, and 100% relative humidity. For adherent cells, the assay is terminated by the addition of cold TCA. Cells are fixed in situ by the gentle addition of 50 μl of cold 50% (w/v) TCA (final concentration, 10% TCA) and incubated for 60 minutes at 4° C. The supernatant is discarded, and the plates are washed five times with tap water and air dried. Sulforhodamine B (SRB) solution (100 μl) at 0.4% (w/v) in 1% acetic acid is added to each well, and plates are incubated for 10 minutes at room temperature. After staining, unbound dye is removed by washing five times with 1% acetic acid and the plates are air dried. Bound stain is subsequently solubilized with 10 mM trizma base, and the absorbance is read on an automated plate reader at a wavelength of 515 nm. For suspension cells, the methodology is the same except that the assay is terminated by fixing settled cells at the bottom of the wells by gently adding 50 μl of 80% TCA (final concentration, 16% TCA). Using the seven absorbance measurements [time zero, (Tz), control growth, (C), and test growth in the presence of drug at the five concentration levels (Ti)], the percentage growth is calculated at each of the drug concentrations levels. Percentage growth inhibition is calculated as: [(Ti−Tz)/(C−Tz)]×100 for concentrations for which Ti>/=Tz [(Ti−Tz)/Tz]×100 for concentrations for which Ti<Tz
(§4) Three dose response parameters are calculated for each experimental agent. […] The drug concentration resulting in total growth inhibition (TGI) is calculated from Ti=Tz. […] Values are calculated for each of these three parameters if the level of activity is reached; however, if the effect is not reached or is exceeded, the value for that parameter is expressed as greater or less than the maximum or minimum concentration tested.
(§5) The methods described were used to test compounds 70 and 71 on a panel of sixty cell lines under a screening service provided by the Developmental Therapeutics Program at the National Institutes of Health. Shown in FIG. 1C are 1, RPMI-8226 leukemia cells; 2; NCI-H322M non-small cell lung cancer cells; 3, HT29 colon cancer cells; 4, U251 CNS cancer cells; 5, SK-MEL-28 melanoma cancer cells; 6, SK-OV-3 ovarian cancer cells; 7, RXF 393 renal cancer cells; 8, PC-3 prostate cancer cells; 9, MDA-MB-231 breast cancer cells.

IGROV1 = test: NCI DTP cell line screen (SRB), Ovarian Cancer
Method: as §1, §2, §3, §4, §5

OVCAR-8 = test: NCI DTP cell line screen (SRB), Ovarian Cancer; conditions: OVCAR-8
Method: as §1, §2, §3, §4, §5

A549/ATCC = test: NCI DTP cell line screen (SRB), Non-Small Cell Lung Cancer
Method: as §1, §2, §3, §4, §5

NCI-H460 = test: as above
Method: as §1, §2, §3, §4, §5

NCI-H23 = test: as above
Method: as §1, §2, §3, §4, §5

EKVX = test: as above
Method: as §1, §2, §3, §4, §5

HOP-62 = test: as above
Method: as §1, §2, §3, §4, §5

For `NCC(=O)Nc1ccc(-n2nc(C(F)(F)F)cc2-c2ccc3c(ccc4ccccc43)c2)cc1` [Compound 70, 2-Amino-N-{4-[5-(2-phenanthrenyl)-3-(trifluoromethyl)-1H-pyrazol-1-yl]-phenyl}-acetamide], the TGI (OVCAR-4) was 3.41E−06, the “Percent Growth” value (OVCAR-4; Log10 Concentration −4.0) was −68% and the “Percent Growth” value (OVCAR-4; Log10 Concentration −5.0) was −82%. For the same compound, the “Percent Growth” value (OVCAR-4; Log10 Concentration −6.0) was 94%, the “Percent Growth” value (OVCAR-4; Log10 Concentration −7.0) was 92% and the “Percent Growth” value (OVCAR-4; Log10 Concentration −8.0) was 99%. The TGI (IGROV1) was 3.97E−06, the “Percent Growth” value (IGROV1; Log10 Concentration −4.0) was −35% and the “Percent Growth” value (IGROV1; Log10 Concentration −5.0) was −49%. The “Percent Growth” value (IGROV1; Log10 Concentration −6.0) was 74%, the “Percent Growth” value (IGROV1; Log10 Concentration −7.0) was 107% and the “Percent Growth” value (IGROV1; Log10 Concentration −8.0) was 97%. For the same compound, the TGI (OVCAR-8) was 4.05E−06, the “Percent Growth” value (OVCAR-8; Log10 Concentration −4.0) was −24% and the “Percent Growth” value (OVCAR-8; Log10 Concentration −5.0) was −33%. The “Percent Growth” value (OVCAR-8; Log10 Concentration −6.0) was 51%, the “Percent Growth” value (OVCAR-8; Log10 Concentration −7.0) was 102% and the “Percent Growth” value (OVCAR-8; Log10 Concentration −8.0) was 97%. The TGI (A549/ATCC) was 2.96E−06, the “Percent Growth” value (A549/ATCC; Log10 Concentration −4.0) was −31% and the “Percent Growth” value (A549/ATCC; Log10 Concentration −5.0) was −57%. The “Percent Growth” value (A549/ATCC; Log10 Concentration −6.0) was 51%, the “Percent Growth” value (A549/ATCC; Log10 Concentration −7.0) was 86% and the “Percent Growth” value (A549/ATCC; Log10 Concentration −8.0) was 102%. For the same compound, the TGI (NCI-H460) was 2.64E−06, the “Percent Growth” value (NCI-H460; Log10 Concentration −4.0) was −33% and the “Percent Growth” value (NCI-H460; Log10 Concentration −5.0) was −46%. For the same compound, the “Percent Growth” value (NCI-H460; Log10 Concentration −6.0) was 34%, the “Percent Growth” value (NCI-H460; Log10 Concentration −7.0) was 77% and the “Percent Growth” value (NCI-H460; Log10 Concentration −8.0) was 97%. The TGI (NCI-H23) was 2.87E−06, the “Percent Growth” value (NCI-H23; Log10 Concentration −4.0) was −66% and the “Percent Growth” value (NCI-H23; Log10 Concentration −5.0) was −79%. The “Percent Growth” value (NCI-H23; Log10 Concentration −6.0) was 67%, the “Percent Growth” value (NCI-H23; Log10 Concentration −7.0) was 102% and the “Percent Growth” value (NCI-H23; Log10 Concentration −8.0) was 101%. The TGI (EKVX) was 3.25E−06, the CC50 (EKVX; Homo sapiens, read-out: LC50) was 7.08 µM and the “Percent Growth” value (EKVX; Log10 Concentration −4.0) was −65%. The “Percent Growth” value (EKVX; Log10 Concentration −5.0) was −72%, the “Percent Growth” value (EKVX; Log10 Concentration −6.0) was 75% and the “Percent Growth” value (EKVX; Log10 Concentration −7.0) was 100%. The “Percent Growth” value (EKVX; Log10 Concentration −8.0) was 110%, the TGI (HOP-62) was 3.01E−06 and the “Percent Growth” value (HOP-62; Log10 Concentration −4.0) was −57%. The “Percent Growth” value (HOP-62; Log10 Concentration −5.0) was −70%, the “Percent Growth” value (HOP-62; Log10 Concentration −6.0) was 64% and the “Percent Growth” value (HOP-62; Log10 Concentration −7.0) was 93%. For the same compound, the “Percent Growth” value (HOP-62; Log10 Concentration −8.0) was 90%.
